Consider 17 compounds from DBAASP.

Common to all, as to assay: ≥ marks a high value that may be exact or a test limit, other limits are often not marked, values filed in µg/mL are converted to µM
Test [1] relates to Pseudomonas aeruginosa ATCC 27853.
Test [2] concerns Staphylococcus aureus ATCC 25923.
Test [3] deals with Escherichia coli ATCC 25922.
Test [4] deals with Staphylococcus aureus ATCC 29213.

Values after ≈ are worked out from the molar mass of the structure shown. Values joined by “and” are separate entries in the source; they are usually repeats but may differ in a detail not shown here. Equal values may be shown once. Some results are limits rather than exact numbers.

For `CC(C)C[C@H](NC(=O)[C@H](Cc1ccccc1)NC(=O)[C@H](C)NC(=O)CNC(=O)[C@H](Cc1c[nH]c2ccccc12)NC(=O)[C@H](CC(N)=O)NC(=O)[C@@H](N)CC(C)C)C(=O)N[C@@H](CCCCN)C(=O)N[C@@H](Cc1cnc[nH]1)C(=O)N[C@@H](Cc1ccccc1)C(=O)N[C@@H](Cc1ccccc1)C(=O)N[C@@H](CCCCN)C(=O)O` [LNWGAFLKHFFK], the MIC in test [1] stood at 32 µM (≈ 48.2 µg/mL). `NC(=O)[C@H](CCCN=C(N)N)NC(=O)[C@H](Cc1c[nH]c2ccccc12)NC(=O)[C@H](CCCN=C(N)N)NC(=O)[C@H](Cc1c[nH]c2ccccc12)NC(=O)[C@@H](N)CCCN=C(N)N` [RWRWR]: the MIC in test [2] stood at 58.2 µM (≈ 49.9 µg/mL); in test [3], 233 µM (≈ 200 µg/mL); in test [1], 58.2 µM (≈ 49.9 µg/mL). `CC(C)C[C@H](NC(=O)[C@H](Cc1ccccc1)NC(=O)[C@@H]1CCCN1C(=O)[C@H](C)NC(=O)[C@H](Cc1c[nH]c2ccccc12)NC(=O)[C@H](Cc1c[nH]c2ccccc12)NC(=O)[C@@H]1CCCN1C(=O)[C@H](Cc1ccccc1)NC(=O)[C@H](CCCN=C(N)N)NC(=O)[C@H](CCCN=C(N)N)NC(=O)[C@@H](N)C(C)C)C(=O)N[C@@H](CCCN=C(N)N)C(=O)N[C@@H](CCCN=C(N)N)C(N)=O` [VRRFPWWAPFLRR] yielded an MIC in test [3] of 8 µM (≈ 14.3 µg/mL). As for `CC(C)C[C@H](NC(=O)[C@H](CCCCN)NC(=O)[C@H](C)NC(=O)[C@H](CC(C)C)NC(=O)[C@H](CCCCN)NC(=O)[C@H](CCCCN)NC(=O)[C@H](CC(C)C)NC(=O)[C@H](CC(C)C)NC(=O)[C@H](CCCCN)NC(=O)[C@H](CC(C)C)NC(=O)[C@H](CC(C)C)NC(=O)[C@H](CCCCN)NC(=O)[C@H](CCCCN)NC(=O)[C@@H](N)CC(C)C)C(=O)N[C@@H](C)C(=O)NCC(=O)O` [LKKLLKLLKKLAKLAG], the MIC in test [4] and in test [3] was 10 µM (≈ 17.8 µg/mL) each time. Consider `CC(C)C[C@H](NC(=O)[C@H](CCCCN)NC(=O)[C@H](CC(C)C)NC(=O)[C@H](CC(C)C)NC(=O)[C@H](CCCCN)NC(=O)[C@H](CCCCN)NC(=O)[C@H](C)NC(=O)[C@H](CC(C)C)NC(=O)[C@H](CCCCN)NC(=O)[C@H](CC(C)C)NC(=O)[C@H](CC(C)C)NC(=O)[C@H](CCCCN)NC(=O)[C@H](CCCCN)NC(=O)[C@@H](N)CC(C)C)C(=O)N[C@@H](C)C(=O)NCC(=O)O` [LKKLLKLAKKLLKLAG], for which the MIC in test [4] and in test [3] was 5 µM (≈ 8.89 µg/mL) in each case. Compound `CSCC[C@H](NC(=O)[C@H](CCCN=C(N)N)NC(=O)[C@H](Cc1c[nH]c2ccccc12)NC(=O)[C@H](CCC(N)=O)NC(=O)[C@H](Cc1c[nH]c2ccccc12)NC(=O)[C@H](CCCN=C(N)N)NC(=O)[C@@H](N)CCCN=C(N)N)C(=O)N[C@@H](CCCCN)C(=O)N[C@@H](CCCCN)C(=O)O` [RRWQWRMKK] registered an MIC in test [3] of 186 µM (≈ 256 µg/mL). Regarding `CC[C@H](C)[C@H](NC(=O)[C@H](CCCCN)NC(=O)[C@H](CCCCN)NC(=O)[C@@H](NC(=O)[C@@H](NC(=O)[C@H](CCCCN)NC(=O)[C@H](Cc1ccccc1)NC(=O)[C@H](CC(C)C)NC(=O)CN)[C@@H](C)CC)[C@@H](C)CC)C(=O)N[C@@H](C)C(=O)N[C@@H](CCCCN)C(=O)N[C@@H](CO)C(=O)N[C@@H](Cc1ccccc1)C(N)=O` [GLFKIIKKIAKSF], the MIC in test [3] was 16.7 µM and 33.5 µM.

As to `CC(C)C[C@H](NC(=O)[C@H](CO)NC(=O)[C@@H](N)CCCCN)C(=O)N[C@H](C(=O)N[C@@H](CCCN=C(N)N)C(=O)N[C@@H](CCCN=C(N)N)C(=O)N[C@@H](Cc1c[nH]c2ccccc12)C(=O)N[C@@H](CCCN=C(N)N)C(=O)N[C@@H](CO)C(=O)N[C@@H](CCCN=C(N)N)C(=O)N[C@@H](Cc1c[nH]c2ccccc12)C(N)=O)C(C)C` [KSLVRRWRSRW], the results for the MIC in test [2], in test [3] and in test [1] were 30 µM (≈ 45.9 µg/mL), 30 µM (≈ 45.9 µg/mL) and 40 µM (≈ 61.2 µg/mL), respectively.

As for `CC[C@H](C)[C@H](NC(=O)CNC(=O)[C@H](C)NC(=O)[C@@H](NC(=O)[C@H](CC(N)=O)NC(=O)[C@H](CCCCN)NC(=O)[C@H](C)NC(=O)[C@H](C)NC(=O)CNC(=O)[C@H](CCCCN)NC(=O)[C@@H](NC(=O)[C@@H](NC(=O)[C@H](CC(=O)O)NC(=O)[C@H](CC(C)C)NC(=O)[C@H](CC(C)C)NC(=O)[C@H](CC(C)C)NC(=O)CN)[C@@H](C)O)C(C)C)C(C)C)C(=O)N[C@@H](CC(C)C)C(=O)N[C@@H](CC(C)C)C(=O)N[C@@H](CC(N)=O)C(=O)N[C@@H](CCCCN)C(=O)N[C@@H](CC(C)C)C(=O)N[C@@H](CCCCN)C(=O)N[C@H]1CSSC[C@@H](C(=O)O)NC(=O)[C@H](CC(=O)O)NC(=O)CNC(=O)[C@H]([C@@H](C)O)NC(=O)[C@H](CCSC)NC(=O)[C@H](CCCCN)NC1=O` [GLLLDTVKGAAKNVAGILLNKLKCKMTGDC], the MIC in test [3] was determined as 4.05 µM (≈ 12.5 µg/mL). Same read-out and setting: to `CC(C)C[C@H](NC(=O)[C@H](Cc1ccccc1)NC(=O)[C@@H]1CCCN1C(=O)[C@H](Cc1c[nH]c2ccccc12)NC(=O)[C@H](Cc1c[nH]c2ccccc12)NC(=O)[C@H](Cc1c[nH]c2ccccc12)NC(=O)[C@H](C)NC(=O)[C@H](Cc1ccccc1)NC(=O)[C@H](CCCCN)NC(=O)[C@H](CCCCN)NC(=O)[C@@H](N)C(C)C)C(=O)N[C@@H](CCCCN)C(=O)N[C@@H](CCCCN)C(N)=O` [VKKFAWWWPFLKK] belongs 32 µM (≈ 56.4 µg/mL). As for `CC[C@H](C)[C@H](NC(=O)[C@H](CCCCN)NC(=O)[C@H](CO)NC(=O)[C@H](C)NC(=O)[C@H](Cc1c[nH]c2ccccc12)NC(=O)CN)C(=O)NCC(=O)N[C@H](C(=O)N[C@@H](CCC(N)=O)C(=O)N[C@@H](CC(C)C)C(=O)NCC(=O)N[C@@H](CCCCN)C(=O)N[C@@H](CCSC)C(=O)N[C@@H](C)C(=O)N[C@@H](CCCCN)C(=O)N[C@H](C(=O)NCC(=O)N[C@@H](CC(C)C)C(=O)N[C@@H](CCCCN)C(=O)N[C@@H](CCC(=O)O)C(=O)N[C@@H](Cc1ccccc1)C(=O)N[C@H](C(=O)N[C@@H](CCC(N)=O)C(=O)N[C@@H](CO)C(=O)O)C(C)C)C(C)C)[C@@H](C)O` [GWASKIGTQLGKMAKVGLKEFVQS], the MIC was 25 µM (≈ 64.1 µg/mL) in test [2] and 100 µM (≈ 256 µg/mL) in test [3]. Regarding `C[C@H](NC(=O)[C@H](Cc1ccccc1)NC(=O)[C@H](C)NC(=O)[C@H](Cc1ccccc1)NC(=O)[C@H](CCCCN)NC(=O)[C@H](C)NC(=O)[C@H](Cc1ccccc1)NC(=O)[C@H](CCCCN)NC(=O)[C@H](CCCCN)NC(=O)[C@H](C)NC(=O)[C@H](Cc1ccccc1)NC(=O)[C@H](CCCCN)NC(=O)[C@H](CCCCN)NC(=O)[C@H](Cc1ccccc1)NC(=O)[C@H](CCCCN)NC(=O)[C@H](CCCCN)NC(=O)[C@H](C)NC(=O)[C@H](Cc1ccccc1)NC(=O)[C@H](CCCCN)NC(=O)[C@H](CCCCN)NC(=O)[C@H](C)NC(=O)[C@@H](N)Cc1ccccc1)C(=O)N[C@@H](Cc1ccccc1)C(N)=O` [FAKKFAKKFKKFAKKFAKFAFAF], the MIC in test [2], in test [3] and in test [1] was 1.44 µM (≈ 4 µg/mL) each time.

Consider `CC[C@H](C)[C@H](NC(=O)[C@H](C)NC(=O)CNC(=O)[C@H](Cc1c[nH]c2ccccc12)NC(=O)[C@H](CC(N)=O)NC(=O)[C@@H](N)CC(C)C)C(=O)N[C@@H](CCCCN)C(=O)N[C@@H](CCCCN)C(=O)N[C@@H](Cc1cnc[nH]1)C(=O)N[C@H](C(=O)N[C@H](C(=O)N[C@@H](CCCCN)C(=O)O)[C@@H](C)CC)[C@@H](C)CC` [LNWGAIKKHIIK], for which, in test [1], the minimal inhibitory concentration (MIC) came to 16 µM (≈ 22.7 µg/mL). With `CC[C@H](C)[C@H](NC(=O)[C@H](CCCCN)NC(=O)[C@H](C)NC(=O)[C@H](CCSC)NC(=O)[C@@H](NC(=O)[C@H](CCCCN)NC(=O)[C@H](CC(C)C)NC(=O)[C@H](Cc1ccccc1)NC(=O)[C@@H](NC(=O)[C@H](CC(=O)O)NC(=O)CNC(=O)[C@H](Cc1c[nH]c2ccccc12)NC(=O)CN)[C@@H](C)O)[C@@H](C)O)C(=O)N[C@@H](C)C(=O)N[C@@H](CCCCN)C(=O)N[C@H](C(=O)NCC(=O)N1CCC[C@H]1C(=O)N[C@@H](CCCCN)C(=O)N[C@@H](CC(C)C)C(=O)N[C@@H](CC(C)C)C(=O)N[C@@H](Cc1cnc[nH]1)C(=O)N[C@@H](CO)C(=O)O)C(C)C` [GWGDTFLKTMAKIAKVGPKLLHS], the MIC in test [2] was > 64 µM and 32 µM. With `CSCC[C@H](NC(=O)[C@@H](N)CCCCN)C(=O)N[C@@H](CCCCN)C(=O)N[C@@H](CCCCN)C(=O)N[C@@H](C)C(=O)N[C@@H](CC(C)C)C(=O)N[C@@H](CCC(N)=O)C(=O)N[C@@H](Cc1ccc(O)cc1)C(N)=O` [KMKKALQY], the MIC in test [3] and in test [1] was above 100 µM each time. In test [3], `CC[C@H](C)[C@H](NC(=O)[C@@H](NC(=O)[C@H](CC(=O)O)NC(=O)[C@H](CC(C)C)NC(=O)[C@H](CC(C)C)NC(=O)[C@H](CCC(N)=O)NC(=O)CNC(=O)[C@H](C)NC(=O)[C@H](CC(C)C)NC(=O)[C@H](CC(N)=O)NC(=O)[C@H](CCCCN)NC(=O)[C@H](C)NC(=O)[C@H](C)NC(=O)[C@H](CC(N)=O)NC(=O)[C@H](CCCCN)NC(=O)[C@@H](NC(=O)[C@@H](NC(=O)[C@H](CC(=O)O)NC(=O)[C@H](CCSC)NC(=O)[C@H](CC(C)C)NC(=O)CN)[C@@H](C)O)C(C)C)[C@@H](C)O)C(=O)N[C@@H](CCCCN)C(=O)N[C@H]1CSSC[C@@H](C(=O)O)NC(=O)CNC(=O)[C@H]([C@@H](C)O)NC(=O)[C@H](CCSC)NC(=O)[C@H](CCCCN)NC1=O` [GLMDTVKNAAKNLAGQLLDTIKCKMTGC] displayed an MIC of 30 µM (≈ 88.1 µg/mL). As for `CC[C@H](C)[C@H](NC(=O)[C@H](Cc1ccc(O)cc1)NC(=O)[C@H](CCC(N)=O)NC(=O)[C@H](CC(C)C)NC(=O)[C@H](C)NC(=O)[C@H](CCCCN)NC(=O)[C@H](CCCCN)NC(=O)[C@@H](N)CCSC)C(=O)N[C@@H](CCCCN)C(=O)N[C@@H](CC(C)C)C(=O)N[C@@H](CC(C)C)C(=O)N[C@@H](CCCCN)C(=O)N[C@@H](CCC(=O)O)C(N)=O` [MKKALQYIKLLKE], the minimum inhibitory concentration (MIC) in test [3] and in test [1] was above 100 µM throughout.
